These results are taken from PubChem BioAssay AID1259407 (Chemical Carcinogenesis Research Information System (CCRIS), 2018).

The source made the active and inactive calls. No rule for the calls is given here.

In the series the test system is CCRIS mutagenicity, Ames/micronucleus/aberration tests. In words: CCRIS mutagenicity studies.
Setting [1] is: Test System: AMES SALMONELLA TYPHIMURIUM, Strain/Indicator: TA98, Metabolic Activation: NONE, Method: PREINCUBATION
The mark [2] stands for this setting: Test System: AMES SALMONELLA TYPHIMURIUM, Strain/Indicator: TA100, Metabolic Activation: NONE, Method: PREINCUBATION
Where [3] appears, read: Test System: AMES SALMONELLA TYPHIMURIUM, Strain/Indicator: TA1535, Metabolic Activation: NONE, Method: PREINCUBATION
Setting [4] is: Test System: AMES SALMONELLA TYPHIMURIUM, Strain/Indicator: TA1537, Metabolic Activation: NONE, Method: PREINCUBATION
Setting [5] is: Test System: AMES SALMONELLA TYPHIMURIUM, Strain/Indicator: TA100, Metabolic Activation: NONE, Method: STANDARD PLATE.
[6] abbreviates: Test System: AMES SALMONELLA TYPHIMURIUM, Strain/Indicator: TA98, Metabolic Activation: NONE, Method: STANDARD PLATE.

Regarding `CNC(=O)ON=CC(C)(C)SC`, the mutagenic call is “active; positive (structural and ploidy changes)” (End Point: IN VIVO CHROMOSOMAL ABERRATIONS, Test System: BONE MARROW CELLS, Species: RAT, Strain/Sex: MALE, Route: ORAL (GAVAGE)); “active; positive” (End Point: IN VIVO MICRONUCLEUS, Test System: BONE MARROW POLYCHROMATIC ERYTHROCYTES, Species: RAT, Strain/Sex: MALE, Route: ORAL (GAVAGE)); “inactive; negative” (Test System: AMES SALMONELLA TYPHIMURIUM, Strain/Indicator: TA97, Metabolic Activation: HAMSTER, LIVER, S-9, AROCLOR 1254 (10 OR 30%), Method: PREINCUBATION); “inactive; negative” (Test System: AMES SALMONELLA TYPHIMURIUM, Strain/Indicator: TA97, Metabolic Activation: NONE, Method: PREINCUBATION); “inactive; negative” (Test System: AMES SALMONELLA TYPHIMURIUM, Strain/Indicator: TA97, Metabolic Activation: RAT, LIVER, S-9, AROCLOR 1254 (10 OR 30%), Method: PREINCUBATION); “inactive; negative” (Test System: AMES SALMONELLA TYPHIMURIUM, Strain/Indicator: TA98, Metabolic Activation: HAMSTER, LIVER, S-9, AROCLOR 1254 (10 OR 30%), Method: PREINCUBATION). In addition, the mutagenic call by setting is: under setting [1], “inactive; negative”; (Test System: AMES SALMONELLA TYPHIMURIUM, Strain/Indicator: TA98, Metabolic Activation: RAT, LIVER, S-9, AROCLOR 1254 (10 OR 30%), Method: PREINCUBATION) “inactive; negative”; (Test System: AMES SALMONELLA TYPHIMURIUM, Strain/Indicator: TA100, Metabolic Activation: HAMSTER, LIVER, S-9, AROCLOR 1254 (10 OR 30%), Method: PREINCUBATION) “inactive; negative”; under setting [2], “inactive; negative”; (Test System: AMES SALMONELLA TYPHIMURIUM, Strain/Indicator: TA100, Metabolic Activation: RAT, LIVER, S-9, AROCLOR 1254 (10 OR 30%), Method: PREINCUBATION) “inactive; negative”; (Test System: AMES SALMONELLA TYPHIMURIUM, Strain/Indicator: TA1535, Metabolic Activation: HAMSTER, LIVER, S-9, AROCLOR 1254 (10 OR 30%), Method: PREINCUBATION) “inactive; negative”. The mutagenic call runs as follows: under setting [3], “inactive; negative”; (Test System: AMES SALMONELLA TYPHIMURIUM, Strain/Indicator: TA1535, Metabolic Activation: RAT, LIVER, S-9, AROCLOR 1254 (10 OR 30%), Method: PREINCUBATION) “inactive; negative”; (Test System: AMES SALMONELLA TYPHIMURIUM, Strain/Indicator: TA1537, Metabolic Activation: HAMSTER, LIVER, S-9, AROCLOR 1254 (10 OR 30%), Method: PREINCUBATION) “inactive; negative”; under setting [4], “inactive; negative”; (Test System: AMES SALMONELLA TYPHIMURIUM, Strain/Indicator: TA1537, Metabolic Activation: RAT, LIVER, S-9, AROCLOR 1254 (10 OR 30%), Method: PREINCUBATION) “inactive; negative”; (Test System: E. COLI, Strain/Indicator: WP2 UVRA, Metabolic Activation: HAMSTER, LIVER, S-9, AROCLOR 1254, Method: STANDARD PLATE) “inactive; negative”. Besides, the mutagenic call (Test System: E. COLI, Strain/Indicator: WP2 UVRA, Metabolic Activation: HAMSTER, LIVER, S-9, Method: STANDARD PLATE) was “inactive; negative”; the mutagenic call (Test System: E. COLI, Strain/Indicator: WP2 UVRA, Metabolic Activation: MOUSE, LIVER, S-9, AROCLOR 1254, Method: STANDARD PLATE) is “inactive; negative”; the mutagenic call (Test System: E. COLI, Strain/Indicator: WP2 UVRA, Metabolic Activation: MOUSE, LIVER, S-9, Method: STANDARD PLATE) was “inactive; negative”; the mutagenic call (Test System: E. COLI, Strain/Indicator: WP2 UVRA, Metabolic Activation: NONE, Method: STANDARD PLATE) was “inactive; negative”; the mutagenic call (Test System: E. COLI, Strain/Indicator: WP2 UVRA, Metabolic Activation: RAT, LIVER, S-9, AROCLOR 1254, Method: STANDARD PLATE) is “inactive; negative”; the mutagenic call (Test System: E. COLI, Strain/Indicator: WP2 UVRA, Metabolic Activation: RAT, LIVER, S-9, Method: STANDARD PLATE) was “inactive; negative”. Besides, the mutagenic call (Test System: MOUSE LYMPHOMA, Strain/Indicator: L5178Y (TK+/TK-), Metabolic Activation: NONE, Method: SUSPENSION/PLATE) is “active; positive”; the mutagenic call (Test System: MOUSE LYMPHOMA, Strain/Indicator: L5178Y (TK+/TK-), Metabolic Activation: RAT, LIVER, S-9, AROCLOR 1254, Method: SUSPENSION/PLATE) was “active; positive”; the mutagenic call (Test System: MOUSE LYMPHOMA, Strain/Indicator: L5178Y (TK+/TK-), Metabolic Activation: RAT, LIVER, S-9, Method: SUSPENSION/PLATE) is “active; positive”.
Regarding `O=[N+]([O-])c1cccc(S(=O)(=O)OC[C@H]2CO2)c1`, the mutagenic call under setting [5] is “active; positive”.
Turning to `c1ccc2c(c1)-c1cc3ccc4ccccc4c3cc1[C@H]1N[C@@H]21`, the mutagenic call reads like this: under setting [6], “active; positive”; under setting [5], “active; positive”.
Turning to `CCCCCCCCCCCCCO`, the mutagenic call under setting [1] is “inactive; negative”; the mutagenic call (Test System: AMES SALMONELLA TYPHIMURIUM, Strain/Indicator: TA98, Metabolic Activation: RAT LIVER S-9, PHENOBARBITAL AND BETA-NAPHTHOFLAVONE, Method: PREINCUBATION) is “inactive; negative”; the mutagenic call under setting [2] was “inactive; negative”; the mutagenic call (Test System: AMES SALMONELLA TYPHIMURIUM, Strain/Indicator: TA100, Metabolic Activation: RAT LIVER S-9, PHENOBARBITAL AND BETA-NAPHTHOFLAVONE, Method: PREINCUBATION) is “inactive; negative”; the mutagenic call under setting [3] is “inactive; negative”; the mutagenic call (Test System: AMES SALMONELLA TYPHIMURIUM, Strain/Indicator: TA1535, Metabolic Activation: RAT LIVER S-9, PHENOBARBITAL AND BETA-NAPHTHOFLAVONE, Method: PREINCUBATION) is “inactive; negative”. The mutagenic call is, setting by setting: under setting [4], “inactive; negative”; (Test System: AMES SALMONELLA TYPHIMURIUM, Strain/Indicator: TA1537, Metabolic Activation: RAT LIVER S-9, PHENOBARBITAL AND BETA-NAPHTHOFLAVONE, Method: PREINCUBATION) “inactive; negative”; (Test System: E.COLI, Strain/Indicator: WP2UVRA/PKM101, Metabolic Activation: NONE, Method: PREINCUBATION) “inactive; negative”; (Test System: E.COLI, Strain/Indicator: WP2UVRA/PKM101, Metabolic Activation: RAT LIVER S-9, PHENOBARBITAL AND BETA-NAPHTHOFLAVONE, Method: PREINCUBATION) “inactive; negative”.
On to `CC(=O)OCc1c2ccccc2cc2ccccc12`, for which the mutagenic call by setting is: under setting [6], “active; positive”; under setting [5], “active; positive”.
On to `CN(C)c1nc2c3cccnc3ccc2n1C`, for which the mutagenic call by setting is: (Test System: AMES SALMONELLA TYPHIMURIUM, Strain/Indicator: TA98, Metabolic Activation: RAT, LIVER, S-9, AROCLOR 1254, Method: PREINCUBATION) “active; positive”; (Test System: AMES SALMONELLA TYPHIMURIUM, Strain/Indicator: TA100, Metabolic Activation: RAT, LIVER, S-9, AROCLOR 1254, Method: PREINCUBATION) “active; positive”.
